Experimental data reported in patent US9157053B1, “Laundry washing machine deodorizer” (priority 2009, dated 2015).

Key:
biofilm = test: standardized test procedure for objectionable odors (whiff test, Pass/Fail) in a High Efficiency laundry washing machine; settings: one ounce of composition per load, 14 days idle, TROMM WM2688WM HE washer, Tide Liquid HE detergent, 2.5 cu ft cotton laundry
From the text: The residue is a matrix of soap, detergent, cotton or wool fibers, and any other organic matter that was introduced by the dirty laundry. This provides a wide array of substances that can support biological growth. The exact mixture is an uncontrolled variable but it considered to be bounded by the use of one machine in one location. Experimental control also involves a standardized volume of the laundry load and the exclusive use of cotton items in the laundry washed. The detergent portion of the matrix was standardized by using only TIDE® Liquid HE Detergent.
A standardized test procedure was developed for a High Efficiency (HE) laundry washing machine. […]
The test procedure also involved a second growth period after the wash cycle where the damp laundry is allowed to sit idle in the laundry washing machine with the door closed. […] Given the above assumptions, it was reasonable to assume that the performance of the composition would be effectively quantified Personal experience with odor problem:
Experimentation with idle periods ranging from twenty four hours to three weeks verified that the intensity of the odor problem was a function of the biofilm growth in the machine during the idle period of the washing schedule. […] Therefore, it was determined that the criteria for effectiveness would be focused on the first load of the week. […]

[1] = system: odor-causing biological growth (mold, mildew) in the machine; test: early odor-control trials in the TROMM laundry washer, before the standardized procedure; settings: TROMM WM2688WM washer; Example 1: one ounce per load, 2.5 cu ft laundry, warm water
From the text: A TROMM Model # WM2688WM laundry washer made by LG Electronics Inc. was purchased. After a few months the odor problem was discovered. […] Applicant started to investigate why a new, expensive washer had this kind of problem. […] These are organic based materials. They provide a growth medium for mold, mildew and other biological growth. The odor is generated by this biofilm. The biofilm returns between each of the treatments.
Since the primary odor was thought to come from mildew, a well known material, 20 MULE TEAM BORAX® detergent was used as a detergent. The boron contained in the detergent is a toxic material that controls mold and fungus. […] The commercially available detergent contained a small amount of boron along with various other chemicals necessary for laundry cleaning.
One ounce of the borax was added to the machine for each load.
The laundry volume was standardized at a full basket of 2.5 Cu Ft.
All wash cycles were run with warm water.

Row | Molecule | first load odor control / first load performance (biofilm) | odor control [1]
1 | sodium borate pentahydrate [5 mol concentration borax] | did increase the control of first load odors, but it was still erratic | 
2 | O=C([O-])O.[Na+] [baking soda] |  | did not work well
